In the experiment the test system is BDF1 mice, colon carcinoma 38 sc, T/C %. In words: NCI In Vivo Anticancer Drug Screen. Data for tumor model Colon Carcinoma 38 (subcutaneous) in B6D2F1 (BDF1) mice. Particulars: endpoint: median tumor weight (est.), higher = larger tumour. The gist of the method: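 Ratio of survival or tumor size, compound-treated animals relative to vehicle controls, in tumor-bearing mice.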

Setting [1] is: dose: 100.0 mg/kg/injection, schedule: Q07DX002 (ip), vehicle: saline with Tween-80.
Setting [2] is: dose: 400.0 mg/kg/injection, schedule: Q07DX002 (ip), vehicle: saline with Tween-80.
Where [3] appears, read: dose: 25.0 mg/kg/injection, schedule: Q07DX002 (ip), vehicle: saline with Tween-80.
Where [4] appears, read: dose: 50.0 mg/kg/injection, schedule: Q07DX002 (ip), vehicle: saline with Tween-80.
Where [5] appears, read: dose: 200.0 mg/kg/injection, schedule: Q07DX002 (ip), vehicle: saline with Tween-80.
Setting [6] is: dose: 32.0 mg/kg/injection, schedule: Q07DX002 (ip), vehicle: saline.
The mark [7] stands for this setting: dose: 50.0 mg/kg/injection, schedule: Q07DX002 (ip), vehicle: suspension in saline.
Where [8] appears, read: dose: 12.5 mg/kg/injection, schedule: Q07DX002 (ip), vehicle: saline with Tween-80.
Setting [9] is: dose: 12.5 mg/kg/injection, schedule: Q07DX002 (ip), vehicle: suspension in saline.
The mark [10] stands for this setting: dose: 2.0 mg/kg/injection, schedule: Q07DX002 (ip), vehicle: saline.
Setting [11] is: dose: 4.0 mg/kg/injection, schedule: Q07DX002 (ip), vehicle: saline.

Several values for one entry are separate records, joined by “and”; a condition that tells them apart may be missing. Equal entries are not always repeated. Inconclusive results are not listed.

Regarding `NC(Cc1ccc(N(CCCl)Cc2ccccc2)cc1)C(=O)O` (stereo not given), the T/C by setting is: (dose: 3.12 mg/kg/injection, schedule: Q07DX002 (ip), vehicle: distilled water + Tween-80) 69 % of control and 90 % of control; (dose: 6.25 mg/kg/injection, schedule: Q07DX002 (ip), vehicle: distilled water + Tween-80) 108 % of control; (dose: 12.5 mg/kg/injection, schedule: Q07DX002 (ip), vehicle: distilled water + Tween-80) 51 % of control and 70 % of control; (dose: 25.0 mg/kg/injection, schedule: Q07DX002 (ip), vehicle: distilled water + Tween-80) 109 % of control and 108 % of control; (dose: 50.0 mg/kg/injection, schedule: Q07DX002 (ip), vehicle: distilled water + Tween-80) 72 % of control and 92 % of control.

Regarding `Nc1ccc(S(N)(=O)=O)cc1`, the T/C was 103 % of control under setting [1]; 82 % of control and 100 % of control (dose: 112.0 mg/kg/injection, schedule: Q07DX002 (ip), vehicle: saline with Tween-80); 122 % of control under setting [2]; 76 % of control (dose: 800.0 mg/kg/injection, schedule: Q07DX002 (ip), vehicle: saline with Tween-80); 101 % of control (dose: 1600.0 mg/kg/injection, schedule: Q07DX002 (ip), vehicle: saline with Tween-80); 80 % of control and 84 % of control (dose: 1800.0 mg/kg/injection, schedule: Q07DX002 (ip), vehicle: saline with Tween-80).

Turning to `COc1cccc(C2NC(=O)c3c(n[nH]c3N)S2)c1O` (stereo not given), the T/C under setting [3] was 102 % of control; the T/C under setting [4] was 106 % of control; the T/C under setting [1] is 90 % of control; the T/C under setting [5] was 94 % of control; the T/C under setting [2] is 59 % of control.

`O=CC=O`: the T/C by setting is: under setting [4], 72 % of control and 86 % of control; under setting [1], 75 % of control and 77 % of control; under setting [2], 80 % of control and 95 % of control.

`NNC(=O)c1ccncc1`: the T/C under setting [6] is 118 % of control; the T/C (dose: 36.0 mg/kg/injection, schedule: Q07DX002 (ip), vehicle: saline) was 77 % of control and 98 % of control; the T/C (dose: 64.0 mg/kg/injection, schedule: Q07DX002 (ip), vehicle: saline) was 104 % of control; the T/C (dose: 72.0 mg/kg/injection, schedule: Q07DX002 (ip), vehicle: saline) is 75 % of control and 95 % of control; the T/C (dose: 128.0 mg/kg/injection, schedule: Q07DX002 (ip), vehicle: saline) is 120 % of control; the T/C (dose: 144.0 mg/kg/injection, schedule: Q07DX002 (ip), vehicle: saline) is 120 % of control.

On to `C[CH2][Pb]([CH2]C)([CH2]C)[O]C(=O)COc1ccccc1`, for which the T/C is 166 % of control (dose: 0.75 mg/kg/injection, schedule: Q07DX002 (ip), vehicle: Klucel (hydroxypropylcellulose) (HPC)); 151 % of control (dose: 3.0 mg/kg/injection, schedule: Q07DX002 (ip), vehicle: Klucel (hydroxypropylcellulose) (HPC)); 118 % of control (dose: 6.0 mg/kg/injection, schedule: Q07DX002 (ip), vehicle: Klucel (hydroxypropylcellulose) (HPC)); 176 % of control (dose: 12.0 mg/kg/injection, schedule: Q07DX002 (ip), vehicle: Klucel (hydroxypropylcellulose) (HPC)).

For the compound `[I][Hg][CH2]C1COC([CH2][Hg][I])CO1` (stereo not given), the T/C by setting is: (dose: 6.25 mg/kg/injection, schedule: Q07DX002 (ip), vehicle: suspension in saline) 67 % of control; under setting [7], 120 % of control.

For `COc1cc(C(C)(C)C)cc(OC)c1C(O)(c1c(OC)cc(C(C)(C)C)cc1OC)c1c(OC)cc(C(C)(C)C)cc1OC`, the T/C was 70 % of control and 77 % of control under setting [8]; 95 % of control and 102 % of control under setting [4]; 88 % of control under setting [5]; 62 % of control under setting [2].

Turning to `COc1cc2c(c(OC)c1OC)-c1c(cc3c(c1OC)OCO3)CC(C)C(C)(O)C2OC(=O)c1ccccc1` (stereo not given), the T/C reads like this: (dose: 50.0 mg/kg/injection, schedule: Q07DX002 (ip), vehicle: saline + Tween-80 + alcohol) 165 % of control; (dose: 100.0 mg/kg/injection, schedule: Q07DX002 (ip), vehicle: saline + Tween-80 + alcohol) 103 % of control; (dose: 200.0 mg/kg/injection, schedule: Q07DX002 (ip), vehicle: saline + Tween-80 + alcohol) 106 % of control; (dose: 400.0 mg/kg/injection, schedule: Q07DX002 (ip), vehicle: saline + Tween-80 + alcohol) 211 % of control; (dose: 800.0 mg/kg/injection, schedule: Q07DX002 (ip), vehicle: saline + Tween-80 + alcohol) 111 % of control.

In the case of `O=c1n(CC2CO2)c(=O)n(CC2CO2)c(=O)n1CC1CO1` (stereo not given), the T/C is 121 % of control (dose: 12.0 mg/kg/injection, schedule: Q07DX002 (ip), vehicle: saline with Tween-80); 170 % of control under setting [8]; 101 % of control and 88 % of control and 89 % of control under setting [9]; 43 % of control (dose: 25.0 mg/kg/injection, schedule: Q07DX003 (ip), vehicle: saline); 119 % of control and 102 % of control under setting [4]; 66 % of control and 42 % of control and 62 % of control under setting [7]. For the same compound, the T/C by setting is: (dose: 50.0 mg/kg/injection, schedule: Q07DX003 (ip), vehicle: saline) 36 % of control; under setting [1], 42 % of control and 65 % of control; (dose: 100.0 mg/kg/injection, schedule: Q07DX002 (ip), vehicle: suspension in saline) 81 % of control; (dose: 200.0 mg/kg/injection, schedule: Q07DX002 (ip), vehicle: suspension in saline) 81 % of control.

With `O=c1s[se]c2ccccc12`, the T/C is 73 % of control (dose: 3.12 mg/kg/injection, schedule: Q07DX002 (ip), vehicle: saline with Tween-80); 90 % of control under setting [8]; 83 % of control under setting [3]; 117 % of control under setting [4].

As to `[Cl][Pt+2][Cl].[NH-]CC1(C[NH-])CCC1`, under setting [9], the T/C is 50 % of control.

With `CO[C@@]12[C@H](COC(N)=O)C3=C(C(=O)C(C)=C(N)C3=O)N1C[C@@H]1N[C@@H]12`, the T/C is, setting by setting: (dose: 0.5 mg/kg/injection, schedule: Q07DX002 (ip), vehicle: saline) 62 % of control and 70 % of control; (dose: 0.5 mg/kg/injection, schedule: Q07DX002 (ip), vehicle: water) 90 % of control; (dose: 1.0 mg/kg/injection, schedule: Q07DX002 (ip), vehicle: clinical formulation) 85 % of control; (dose: 1.0 mg/kg/injection, schedule: Q07DX002 (ip), vehicle: saline) 58 % of control and 61 % of control; (dose: 1.0 mg/kg/injection, schedule: Q07DX002 (ip), vehicle: water) 80 % of control; (dose: 2.0 mg/kg/injection, schedule: Q07DX002 (ip), vehicle: clinical formulation) 84 % of control. Also, the T/C was 35 % of control and 51 % of control under setting [10]; 30 % of control (dose: 2.0 mg/kg/injection, schedule: Q07DX002 (ip), vehicle: water); 112 % of control (dose: 3.75 mg/kg/injection, schedule: Q07DX002 (oral), vehicle: water); 20 % of control (dose: 4.0 mg/kg/injection, schedule: Q07DX002 (ip), vehicle: clinical formulation); 8 % of control and 22 % of control under setting [11]; 13 % of control (dose: 4.0 mg/kg/injection, schedule: Q07DX002 (ip), vehicle: water). Besides, the T/C reads like this: (dose: 7.5 mg/kg/injection, schedule: Q07DX002 (oral), vehicle: water) 93 % of control; (dose: 15.0 mg/kg/injection, schedule: Q07DX002 (oral), vehicle: water) 21 % of control; (dose: 30.0 mg/kg/injection, schedule: Q07DX002 (oral), vehicle: water) 28 % of control.

In the case of `Cc1c(N)nc(C(CC(N)=O)NCC(N)C(N)=O)nc1C(=O)NC(C(=O)NC(C)C(O)CC(=O)NC(C(=O)NC(OC1OC(C)C(N)C(O)C1O)C(O)c1nc(-c2nc(C(=O)NCCCC(N)CC(=O)NCCCNCCCCN)cs2)cs1)C(C)O)C(OC1OC(CO)C(O)C(O)C1OC1OC(CO)C(O)C(OC(N)=O)C1O)c1cnc[nH]1` (stereo not given), the T/C under setting [10] was 56 % of control; the T/C under setting [11] was 43 % of control; the T/C (dose: 8.0 mg/kg/injection, schedule: Q07DX002 (ip), vehicle: saline) is 25 % of control; the T/C (dose: 16.0 mg/kg/injection, schedule: Q07DX002 (ip), vehicle: saline) is 19 % of control; the T/C under setting [6] was 6 % of control.

Source of the values: PubChem BioAssay AID212 (DTP/NCI, 2004).
